Data on one compound can be found in patent US20230310427A1, “NEW THERAPEUTIC USE OF RILPIVIRINE” (UNIVERSITY OF SOUTH AUSTRALIA, priority 2020, published 2023).

Molecules are shown by their SMILES.

Common to all, as to assay type: cell-based
Experiment [1] deals with Jurkat cells. As to the kind of experiment: Cell cycle analysis (flow cytometry). To be noted: various concentrations, 24 hour. As to the method:
(§1) The effect of Rilpivirine on cell cycle distribution in different cancer cell lines was evaluated by flow cytometric analysis. Briefly, cells were seeded in 6-well plates at a density of 6 × 10^4 cells/well. All plates were incubated overnight at 37° C. in a 5% CO2 incubator. Following the incubation, the test compounds (Rilpivirine (Ril) and comparators, Alisertib (Ali; a known Aurora A inhibitor) and Etravirine (Etra; 4-[[6-amino-5-bromo-2-[(4-cyanophenyl)amino]-4-pyrimidinyl]oxy]-3,5-dimethylbenzonitrile - a structurally similar NNRTI drug compound sold under the brand name Intelence® (Janssen Therapeutics)) were added to individual wells and the plates were incubated at same condition for 24 h, 48 h or 72 h. Subsequently, the medium was removed from the wells and transferred into fluorescence-activated cell sorting (FACS) tubes. The adherent cells remaining were trypsinised, re-suspended in media and transferred into the FACS tubes. Cells were centrifuged, fixed with cold 70% ethanol for 15 min and pelleted. The pelleted cells were then re-suspended in 200 µL propidium iodide (PI) solution (50 µg/mL propidium iodide, 0.1 mg/mL ribonuclease A, 0.1% sodium citrate, 0.1% triton X-100) and incubated in the dark for 1.5 h at room temperature. Following the incubation, 200 µL PBS was added. Samples were assessed using a flow cytometer (Cytoflex; Beckman Coulter Inc, Brea, CA, United States of America) and data were analysed using the Cytexpert software.
In general terms: In flow cytometry, cells or beads pass a laser one at a time.

Another experiment deals with K-562 cells. As to the kind of experiment: Cell cycle analysis (flow cytometry). Conditions: various concentrations, 24 hour. As to the method: as §1
Experiment [2] deals with NB4 cells. The experiment is described as follows: Cell cycle analysis (flow cytometry). To be noted: various concentrations, 24 hour. As to the method:
as §1

For a further experiment, the system named is PC3 cells. As to the kind of experiment: Cell cycle analysis (flow cytometry). Conditions: 48 hour treatment; p53 mutant. As to the method: as §1
A further experiment has as its system SKOV-3 cells. The experiment is described as follows: Cell cycle analysis (flow cytometry). Conditions: 72 hours, 5 µM, 10 µM and 20 µM; p53 mutant; data not shown. As to the method: as §1
In the next experiment the test system is T47D cells. The experiment is described as follows: Cell cycle analysis (flow cytometry). To be noted: 48-hour treatment; p53 mutant. As to the method: as §1
The test system of the next experiment is U-937 cells. As to the kind of experiment: Cell cycle analysis (flow cytometry). To be noted: various concentrations, 24 hour. As to the method: as §1
Experiment [3] has as its system p53 wild-type (WT) A2780 cells. As to the kind of experiment: Cell cycle analysis (flow cytometry). To be noted: 24, 48 and 72 hour. As to the method:
as §1

In a further experiment the test system is HL-60 cells. As to the kind of experiment: Apoptosis analysis (Annexin-V FITC/PI). To be noted: 48 hour treatment, various concentrations. As to the method: (§2) Instead of ethanol fixation, the cell number of each sample was counted, and the cells were diluted to 1×10^5 cells with 1 mL PBS in fresh FACS tubes. Cells were centrifuged and then re-suspended in 1 mL of cold PBS (whole step repeated twice). Pelleted cells were resuspended in 100 µL binding buffer, and subsequently 3 µL of Annexin V and 3 µL of PI were added to all tubes and incubated in the dark for 15 min at room temperature. Following the incubation period, 200 µL of 1 x binding buffer was added. Samples were assessed using a flow cytometer (Cytoflex) within 1 h of staining and data were analysed using Cytexpert software.

Experiment [4] concerns Jurkat cells. As to the kind of experiment: Apoptosis analysis (Annexin-V FITC/PI). To be noted: 48 hour treatment, various concentrations. As to the method: as §2
Experiment [5] concerns NB4 cells. As to the kind of experiment: Apoptosis analysis (Annexin-V FITC/PI). Conditions: 48 hour treatment, various concentrations. As to the method: as §2
Another experiment has as its system p53 WT A2780 cells. The experiment is described as follows: Apoptosis analysis (Annexin-V FITC/PI). Conditions: 48 hour treatments, various concentrations. As to the method:
as §2

Experiment [6] deals with auto-phosphorylation of Aurora A at Thr288 in HL-60 cells. The experiment is described as follows: Western blot, Aurora A auto-phosphorylation. Conditions: 24 hour, 5 µM, 10 µM and 20 µM. As to the method:
(§3) For Western blotting, cells (8×10^5) were seeded in a culture dish with 10 mL medium and incubated overnight at 37° C., 5% CO2. Untreated and compound-treated cells were lysed using phosphate lysis buffer and protease inhibitors. The protein concentration of each sample was determined by Bio-Rad DC™ protein assay (Bio-Rad Laboratories, Hercules, CA, United States of America). The protein was deactivated at 95° C. for 5 min and then resolved on 4-20% polyacrylamide gels by electrophoresis. Proteins were transferred to polyvinylidene difluoride (PDVF) membrane and blocked for 1 h with 10% skimmed milk (SM) in Tris-buffered saline and Tween (TBST). After adding primary antibody, the membranes were incubated overnight on a rocker in a 4° C. cold room. The following day, membranes were washed in TBST (4×20 min), incubated for at least 1 h at room temperature with the appropriate horseradish peroxidase conjugated secondary antibody. Following this, the blots were washed with TBST (4×20 min) again. The blots were then treated with Western blotting detection reagent and the band intensity was determined using a Bio-Rad ChemiDoc™ MP imaging system (Bio-Rad Laboratories). All the antibodies used for protein detection were from Cell Signaling Technology (Danvers, MA, United States of America). […]
A general note: Immunoblotting shows a protein as a band on a membrane.

Experiment [7] concerns auto-phosphorylation of Aurora A at Thr288 in NB4 cells. As to the kind of experiment: Western blot, Aurora A auto-phosphorylation. To be noted: 24 hour, 5 µM, 10 µM and 20 µM. As to the method:
as §3

Experiment [8] concerns cleavage of PARP in p53 WT A2780 cells. The experiment is described as follows: Western blot, PARP cleavage. Conditions: 48 hour treatments, various concentrations. As to the method:
as §3

The test system of a further experiment is bc1-2. The experiment is described as follows: Western blot of cell lysates, apoptosis markers. To be noted: increasing concentrations; data not shown. As to the method: as §3
Experiment [9] relates to cleaved PARP (poly (ADP-ribose) polymerase). As to the kind of experiment: Western blot of cell lysates, apoptosis markers. To be noted: increasing concentrations; data not shown. As to the method: as §3

With `Cc1cc(/C=C/C#N)cc(C)c1Nc1ccnc(Nc2ccc(C#N)cc2)n1` [Rilpivirine, 4-[[4-[4-[(E)-2-cyanoethenyl]-2,6-dimethylanilino]pyrimidin-2-yl]amino]benzonitrile], the cell cycle arrest result in the experiment with Jurkat cells [1] was “arrests NB4 and Jurkat cells in the G2/M phase in a dose-dependent manner”; in the experiment on K-562 cells it was “arrests both of these cell lines in the G2/M phase in a dose-dependent manner”; in the experiment with NB4 cells [2] it was “arrests NB4 and Jurkat cells in the G2/M phase in a dose-dependent manner”; with PC3 cells it was “induce G2/M arrest”; in the experiment with SKOV-3 cells, “caused G2/M arrest in a dose-dependent manner”; in the experiment on T47D cells it was “arrest T47D breast cancer cells in G2/M phase”. Also, the cell cycle arrest entry in the experiment with U-937 cells is listed as “arrests both of these cell lines in the G2/M phase in a dose-dependent manner”; in [3] (10 µM), “arrests the cells in the G1 phase”. Moreover, in experiment [3] (20 µM), the cell cycle distribution result is listed as “increased number of cells accumulated in Sub-G1 phase”. Besides, the induction of apoptosis entry in the experiment with HL-60 cells is reported as “induces apoptosis in all of these cell lines in a dose-dependent manner”; in the experiment with Jurkat cells [4] it was “induces apoptosis in all of these cell lines in a dose-dependent manner”; with NB4 cells [5], “induces apoptosis in all of these cell lines in a dose-dependent manner”; in the experiment with p53 WT A2780 cells it was “induces apoptosis in this cell line in a dose-dependent manner”. The “level of auto-phosphorylated Aurora A (Thr288)” value in experiment [6] and in experiment [7] was “marked decrease in the level of auto-phosphorylated protein” each time. Moreover, in experiment [8], the “cleavage of PARP” value is given as “apoptosis is associated with cleavage of PARP”. In addition, in the experiment on bc1-2, the “bc1-2 level in cell lysates” value is listed as “downregulation of bc1-2”. Further, in experiment [9], the “cleaved PARP in cell lysates” value is “appearance in the cell lysates of cleaved PARP”.
